Assay results from patent US20250230193A1, “CYCLIC COMPOUND HAVING SELECTIVE KRAS INHIBITORY EFFECT ON HRAS AND NRAS” (CHUGAI SEIYAKU KABUSHIKI KAISHA, priority 2022, published 2025).
*1 amine or outer side, *2 acyl side, *3 side chain or, on linkers, in order; H or OH if unused. Where a SMILES comes first, the peptide text is derived from it. Bridges are numbered along the chain shown (N, C = ends). [ ]: non-standard residue; d: D form. The star is where a group is joined. hPhe(3-Cl-4-CF3) = N[C@@H](CCc1ccc(C(F)(F)F)c(Cl)c1)C(=O)O; NPrPhe(4-CF3) = CCCN[C@@H](Cc1ccc(C(F)(F)F)cc1)C(=O)O; X22 = CCCN([C@@H](COC1CCC1)C(=O)[*:2])[*:1]; NMeGly(cPent) = CN[C@H](C(=O)O)C1CCCC1; NMeD = CN[C@@H](CC(=O)O)C(=O)O; NMeL = CN[C@@H](CC(C)C)C(=O)O; NMeNva = CCC[C@H](NC)C(=O)O; Morpholide = C1CN(*)CCO1; NMeA = CN[C@@H](C)C(=O)O; Ac5c = NC1(C(=O)O)CCCC1; Aze = O=C(O)[C@@H]1CCN1; Ac4c = NC1(C(=O)O)CCC1; Sar = CNCC(=O)O

Legend:
[1] = target: GDP-bound NRAS wild-type protein (Homo sapiens, UniProt P01111); experiment: Binding to NRAS by surface plasmon resonance (SPR), Single Cycle Kinetics; settings: for NRAS/KRAS (ratio of KD value for NRAS to KD value for KRAS): GDP-bound NRAS wild-type vs GDP-bound KRAS wild-type
Chain of GDP-bound NRAS wild-type protein (P01111 whole entry): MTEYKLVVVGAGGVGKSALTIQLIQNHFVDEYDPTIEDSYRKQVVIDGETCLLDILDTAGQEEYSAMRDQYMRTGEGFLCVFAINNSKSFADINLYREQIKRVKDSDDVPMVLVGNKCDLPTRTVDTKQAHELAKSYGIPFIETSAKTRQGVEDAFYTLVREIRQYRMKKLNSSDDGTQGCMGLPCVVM

[2] = target: GDP-bound HRAS wild-type protein (Homo sapiens, UniProt P01112); experiment: Binding to HRAS by surface plasmon resonance (SPR), Single Cycle Kinetics; settings: for HRAS/KRAS (ratio of KD value for HRAS to KD value for KRAS): GDP-bound HRAS wild-type vs GDP-bound KRAS wild-type
Chain of GDP-bound HRAS wild-type protein (P01112 whole entry): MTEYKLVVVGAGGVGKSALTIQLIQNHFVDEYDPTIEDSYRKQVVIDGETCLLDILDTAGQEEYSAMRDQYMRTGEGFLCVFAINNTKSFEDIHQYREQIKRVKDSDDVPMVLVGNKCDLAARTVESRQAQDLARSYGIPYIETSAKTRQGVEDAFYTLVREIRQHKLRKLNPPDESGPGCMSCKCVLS

[3] = KD ratio NRAS/KRAS, class symbols
[4] = KD ratio HRAS/KRAS, class symbols

## CC[C@H](C)[C@@H]1NC(=O)[C@H](CC(C)C)N(C)C(=O)C[C@@H](C(=O)N2CCOCC2)N(C)C(=O)[C@H](C2CCCC2)N(C)C(=O)C2(CCCC2)NC(=O)[C@@H]2[C@@H](O)CCN2C(=O)[C@H](CCc2cc(F)c(C(F)(F)F)c(F)c2)NC(=O)CN(C)C(=O)[C@H](Cc2ccc(C(F)(F)F)cc2)N2CCCCC[C@@H](C2=O)N(C)C(=O)CN(C)C1=O [PP0662]
[1]; KD ratio NRAS/KRAS, SPR
  NRAS/KRAS (ratio of KD value with respect to GDP-bound NRAS wild-type protein to KD value with respect to KRAS): B (a compound having 3 or more and less than 10 is denoted as B)
[2]; KD ratio HRAS/KRAS, SPR
  HRAS/KRAS (ratio of KD value with respect to GDP-bound HRAS wild-type protein to KD value with respect to KRAS): B (a compound having 3 or more and less than 10 is denoted as B)

## CCCN1C(=O)CN(C)C(=O)CN(C)C(=O)[C@H]([C@@H](C)CC)NC(=O)[C@H](CC(C)C)N(C)C(=O)C[C@@H](C(=O)N2CCOCC2)N(C)C(=O)[C@H](C2CCCC2)N(C)C(=O)C2(CCC2)NC(=O)[C@@H]2CCCN2C(=O)[C@H](CCc2ccc(C(F)(F)F)c(Cl)c2)NC(=O)CN(C)C(=O)[C@@H]1COC1CCC1 [PP1816] ([NMeL]I[Sar][Sar][X22][Sar][hPhe(3-Cl-4-CF3)]P[Ac4c][NMeGly(cPent)][NMeD]-Morpholide; lactam N-11)
[1]; SPR
  NRAS/KRAS (ratio of KD value for NRAS to KD value for KRAS): B (a compound having 3 or more and less than 10 is denoted as B)
[2]; SPR
  HRAS/KRAS (ratio of KD value for HRAS to KD value for KRAS): C (A compound having a KD ratio of 0.1 or more and less than 3 is denoted as C)

## CCC[C@H]1C(=O)N[C@@H]([C@@H](C)CC)C(=O)N(C2CC2)CC(=O)N(C)[C@H]2C/C=C\CCN(C2=O)[C@@H](Cc2ccc(C)cc2)C(=O)N(C)CC(=O)N[C@@H](CCc2cc(F)c(C(F)(F)F)c(F)c2)C(=O)N2C[C@H](OC3CCC3)C[C@H]2C(=O)NC2(CC(C)(C)C2)C(=O)N(C)[C@@H](C2CCCC2)C(=O)N(C)[C@H](C(=O)N(C)C)CC(=O)N1C [PP2614]
[1]; [3]
  NRAS/KRAS (ratio of KD value with respect to GDP-bound NRAS wild-type protein to KD value with respect to KRAS): A (a compound having 10 or more and less than 20 is denoted as A)
[2]; [4]
  HRAS/KRAS (ratio of KD value with respect to GDP-bound HRAS wild-type protein to KD value with respect to KRAS): A (a compound having 10 or more and less than 20 is denoted as A)

## CCO[C@@H]1C[C@H]2C(=O)NC3(CC(C)(C)C3)C(=O)N(C)[C@@H](C3CCCC3)C(=O)N(C)[C@H](C(=O)N3CCCCC3)CC(=O)N(C)[C@@H](COC)C(=O)N[C@@H]([C@@H](C)CC)C(=O)N(C)CC(=O)N(C)[C@H]3C/C=C\CCN(C3=O)[C@@H](Cc3ccc(C)cc3)C(=O)N(C)CC(=O)N[C@@H](CCc3cc(F)c(C(F)(F)F)c(F)c3)C(=O)N2C1 [PP2668]
[1]; [3]
  NRAS/KRAS (ratio of KD value with respect to GDP-bound NRAS wild-type protein to KD value with respect to KRAS): A (a compound having 10 or more and less than 20 is denoted as A)
[2]; [4]
  HRAS/KRAS (ratio of KD value with respect to GDP-bound HRAS wild-type protein to KD value with respect to KRAS): A (a compound having 10 or more and less than 20 is denoted as A)

## CCC[C@H]1C(=O)N[C@@H]([C@@H](C)CC)C(=O)N(C)[C@@H](C)C(=O)N2CC[C@H]2C(=O)N(CCC)[C@@H](Cc2ccc(C(F)(F)F)cc2)C(=O)N(C)CC(=O)N[C@@H](CCc2ccc(C(F)(F)F)c(Cl)c2)C(=O)N2CCC[C@H]2C(=O)NC2(CCCC2)C(=O)N(C)[C@@H](C2CCCC2)C(=O)N(C)[C@H](C(=O)N2CCOCC2)CC(=O)N1C [PP0193] ([NMeNva]I[NMeA][Aze][NPrPhe(4-CF3)][Sar][hPhe(3-Cl-4-CF3)]P[Ac5c][NMeGly(cPent)][NMeD]-Morpholide; lactam N-11)
[1]; KD ratio NRAS/KRAS, SPR
  NRAS/KRAS (ratio of KD for GDP-bound NRAS wild-type to KD for KRAS): C (A compound having a KD ratio of 0.1 or more and less than 3 is denoted as C)
[2]; KD ratio HRAS/KRAS, SPR
  HRAS/KRAS (ratio of KD for GDP-bound HRAS wild-type to KD for KRAS): C (A compound having a KD ratio of 0.1 or more and less than 3 is denoted as C)

## CC[C@H](C)[C@@H]1NC(=O)[C@H](CC(C)C)N(C)C(=O)C[C@@H](C(=O)N2CCOCC2)N(C)C(=O)[C@H](C2CCCC2)N(C)C(=O)C2(CCCC2)NC(=O)[C@@H]2CCCN2C(=O)[C@H](CCc2cc(F)c(C(F)(F)F)c(F)c2)NC(=O)CN(C)C(=O)[C@H](Cc2ccc(C(F)(F)F)cc2)N2CCCCC[C@@H](C2=O)N(C)C(=O)[C@@H]2CCCN2C1=O [PP0485]
[1]; KD ratio NRAS/KRAS, SPR
  NRAS/KRAS (ratio of KD value with respect to GDP-bound NRAS wild-type protein to KD value with respect to KRAS): A (a compound having 10 or more and less than 20 is denoted as A)
[2]; KD ratio HRAS/KRAS, SPR
  HRAS/KRAS (ratio of KD value with respect to GDP-bound HRAS wild-type protein to KD value with respect to KRAS): B (a compound having 3 or more and less than 10 is denoted as B)

## CCO[C@@H]1C[C@H]2C(=O)NC3(CC(C)(C)C3)C(=O)N(C)[C@@H](C3CCCC3)C(=O)N(C)[C@H](C(=O)N(C)C)CC(=O)N(C)[C@@H](C)C(=O)N[C@@H]([C@@H](C)CC)C(=O)N(C)CC(=O)N(C)[C@H]3C/C=C\CCN(C3=O)[C@@H](Cc3ccc(C(F)(F)F)cc3)C(=O)N(C)CC(=O)N[C@@H](CCc3ccc(C(F)(F)F)c(OC)c3)C(=O)N2C1 [PP1674]
[1]; SPR
  NRAS/KRAS (ratio of KD value for NRAS to KD value for KRAS): A (a compound having 10 or more and less than 20 is denoted as A)
[2]; SPR
  HRAS/KRAS (ratio of KD value for HRAS to KD value for KRAS): A (a compound having 10 or more and less than 20 is denoted as A)
